# From US20100137139A1, “HERBICIDE/SAFENER COMBINATION” (BAYER CROPSCIENCE AG, priority 2008, published 2010)
# Values joined by “and” are separate entries in the source; they are usually repeats but may differ in a detail not shown here. Equal values may be shown once.
# How the values were obtained:
# Type in all cases: in vivo
# Conditions in all cases: no safener
# Wheat (Triso) [1] = assay: Pre-emergence herbicidal effect and safener effect on wheat, visual scoring in greenhouse
# From the text: (§1) Seeds or rhizome pieces of mono- and dicotyledonous weed plants and crop plants are planted in peat pots in sandy loam and covered with earth. The herbicide/safener active ingredient combinations according to the invention, formulated as water-soluble powders or suspensions, and, in parallel experiments, the correspondingly formulated individual active ingredients were then applied to the surface of the covering earth at an application rate of 600 to 800 I of water/ha (converted) in a variety of dosages.
# (§2) After the treatment, the pots were placed in the greenhouse and kept under good growth conditions for the weeds and the crop plants. Visual scoring of the plant damage or emergence damage was carried out after the test plants had emerged after a test period of 2 to 4 weeks, in comparison with untreated controls.
# Wheat (Triso) [2] = assay: Post-emergence herbicidal effect and safener effect on wheat, visual scoring in greenhouse
# Description: (§3) Seeds or rhizome pieces of mono- and dicotyledonous harmful plants and of crop plants are planted in peat pots in sandy loam, covered with earth and grown in a greenhouse under good growth conditions. Alternatively to this, harmful plants occurring in the paddy rice cultivation are cultivated in pots in which water comes to 2 cm above the soil surface. 10 to 20 days after sowing, the test plants are treated in the one-to three-leaf stage. The herbicide/safener active ingredient combinations according to the invention, formulated as water-soluble powders or suspensions, and, in parallel experiments, the correspondingly formulated individual active ingredients are sprayed onto the green plant parts in various dosages using an application rate of 300 I of water/ha (converted) and, after the test plants have remained in the greenhouse under optimum growth conditions for 2-3 weeks, the effect of the preparations is scored visually in comparison with untreated controls. In the case of rice or in the case of harmful plants which occur in the rice cultivation, the active ingredients are also placed directly into the irrigation water (application analogous to the so-called granules application) or sprayed onto plants and into the irrigation water.
# Corn (Aventura) [3] = assay: Pre-emergence herbicidal effect and safener effect on corn, visual scoring in greenhouse
# From the text: as §1, §2
# Rice (Ballila) = assay: Post-emergence herbicidal effect and safener effect on rice, visual scoring in greenhouse
# Description: as §3
# Corn (Aventura) [4] = assay: Post-emergence herbicidal effect and safener effect on corn, visual scoring in greenhouse
# Description: as §3
SMILES,% effect (without safener) (Wheat (Triso) [1]; herbicide 25 g a.i./ha),% effect (without safener) (Corn (Aventura) [3]; herbicide 50 g a.i./ha),% effect (without safener) (Wheat (Triso) [2]; herbicide 25 g a.i./ha),% effect (without safener) (Corn (Aventura) [4]; herbicide 25 g a.i./ha),also measured
"Nc1nc(C2CC2)nc(C(=O)O)c1Cl [Compound I-1, 6-amino-5-chloro-2-cyclopropyl-4-pyrimidinecarboxylic acid]",30%,–,–,–,% effect (without safener) (Wheat (Triso) [2]; herbicide 50 g a.i./ha): 20%; % effect (without safener) (Corn (Aventura) [3]; herbicide 100 g a.i./ha): 50%
"CCOC(=O)c1nc(C2CC2)nc(N)c1Cl [Compound I-3, ethyl 6-amino-5-chloro-2-cyclopropyl-4-pyrimidinecarboxylate]",–,20% and 25%,–,–,% effect (without safener) (Rice (Ballila); herbicide 25 g a.i./ha): 60%; % effect (without safener) (Corn (Aventura) [4]; herbicide 50 g a.i./ha): 60%
"Nc1nc(-c2ccc(Cl)cc2)nc(C(=O)O)c1Cl [Compound I-109, 6-amino-5-chloro-2-(4-chlorophenyl)-4-pyrimidinecarboxylic acid]",20%,–,30%,60%,% effect (without safener) (Corn (Aventura) [3]; herbicide 25 g a.i./ha): 20%
"Nc1nc(C2CC2)nc(C(=O)[O-])c1Cl.[K+] [Compound I-163, potassium salt of 6-amino-5-chloro-2-cyclopropyl-4-pyrimidinecarboxylic acid]",–,50%,10%,20%,% effect (without safener) (Wheat (Triso) [1]; herbicide 50 g a.i./ha): 20%
"Nc1nc(C2CC2)nc(C(=O)[O-])c1Cl.[Na+] [Compound I-164, 6-amino-5-chloro-2-cyclopropyl-4-pyrimidinecarboxylic acid sodium salt]",10%,–,20%,–,"% effect (without safener) (Rice (Ballila); herbicide 25 g a.i./ha, sodium salt): 10% and 20%; % effect (without safener) (Rice (Ballila); herbicide 50 g a.i./ha): 20%"
